The text below walks through data of patent publication US20160002710A1, “REPORTER PHAGE AND […] BACTERIA” (priority 2014, published 2016).

SMILES strings stand for the structures. ≈ marks a conversion by molar mass, not a printed value.

Holding throughout (type): cell-based
Assay [1] has as its system S. flexneri ATCC 25875. The assay can be described thus: microbe, parasite or virus in culture. To be noted: Shigella flexneri, ATCC25875; growth (A625) after 20 h at 35° C.; read-out: minimum inhibitory concentration. The procedure:
(§1) Cells (5×10^5 CFU/mL) and antibiotics were prepared in cation-adjusted Mueller Hinton broth according to CLSI methodology. […] The same Shigella inoculum was grown for 5 h at 35° C. in the presence of antibiotics, infected with Shfl::luxAB, and bioluminescence assayed after 20 min.
(§2) Therefore, the ability of Shfl25875::luxAB to confer bioluminescence signal to Shigella spp. in the presence of antibiotics was compared to the standard CLSI broth microdilution method. […] Cells were incubated with a range of antibiotic concentrations in microtiter plates, incubated at 35° C., and assessed for growth (A625) after 20 h as per the CLSI protocol, or bioluminescence following infection by Shfl25875::luxAB.

A further assay deals with E. coli ATCC 25922. Nature of the assay: microbe, parasite or virus in culture. To be noted: Escherichia coli, ATCC25922; cation-adjusted Mueller Hinton broth, 35° C., 20 h; within the acceptable range. As for the experimental part: as §1
Assay [2] has as its system S. flexneri ATCC 25875. The assay can be described thus: Reporter phage (Shfl25875::luxAB) bioluminescence antibiotic susceptibility assay. To be noted: 5 h growth with antibiotic, infection with reporter phage, read after 20 min. The procedure:
as §1, §2

As to `CC1(C)S[C@@H]2[C@H](NC(=O)[C@H](N)c3ccccc3)C(=O)N2[C@H]1C(=O)O` [ampicillin], the MIC in the assay with S. flexneri ATCC 25875 [1] stood at 1 µg/mL (≈ 2.86 µM); against E. coli ATCC 25922 it was 2 µg/mL (≈ 5.72 µM). Also, the “Bioluminescence at antibiotic concentrations at the minimum inhibitory concentration or higher” value with S. flexneri ATCC 25875 [2] is “at or close to background”.
